Results on 26 molecules are retold here after patent publication US11453677B2 (priority 2016, dated 2022).

Common to all, as to experiment: cells
Format in all cases: cell-based

The subject of assay [1] is influenza A virus minigenome (PB2, PB1, PA, NP) RNP_CAL in 293T cells. To be noted: HEK-293T, 48 h, read-out: RNP_CAL_EC50.
Assay [2] has as its system influenza virus minigenome (PB2, PB1, PA, NP) RNP_Hubei in 293T cells. The note with it: unidentified influenza virus, HEK-293T, 48 h, read-out: RNP_Hubei EC50.
Assay [3] concerns influenza A virus minigenome (PB2, PB1, PA, NP) RNP_Alaska in 293T cells. The note with it: HEK-293T, 48 h, read-out: RNP_Alaska EC50.

In the case of `O=c1cnn2c(c1O)-c1nccn1CC2C(c1ccccc1)c1ccccc1` (stereo not shown) [Example 1, 6-Benzhydryl-11-hydroxy-5H-imidazo[2′,1′:3,4]pyrazino[1,2-b]pyridazin-10(6H)-one], the values for the EC50 in assay [1], in assay [2] and in assay [3] were 110 nM, 110 nM and 130 nM, respectively.

Regarding `O=c1cnn2c(c1O)-c1nccn1CC2C(c1cccc(F)c1)c1cccc(F)c1` (stereo not shown) [Example 2, 6-(bis(3-fluorophenyl)methyl)-11-hydroxy-5,6-dihydro-10H-imidazo[2′,1′:3,4]pyrazino[1,2-b]pyridazin-10-one], the results for the EC50 in assay [1], in assay [2] and in assay [3] were 110 nM, 90 nM and 110 nM, respectively.

For `O=c1cnn2c(c1O)-c1ncnn1CC2C(c1ccccc1)c1ccccc1` (stereo not shown) [Example 3, 6-benzhydryl-11-hydroxy-5,6-dihydro-10H-[1,2,4]triazolo[5′,1′:3,4]pyrazino[1,2-b]pyridazin-10-one], the EC50 in assay [1] came to 1100 nM; in assay [2] it was 790 nM; in assay [3] it was 1400 nM.

Consider `O=c1ccn2c(c1O)-c1nccn1C[C@@H]2C(c1ccccc1)c1ccccc1` [Example 4, (S)-6-Benzhydryl-11-hydroxy-5H-imidazo[1,2-a]pyrido[2,1-c]pyrazin-10(6H)-one], for which the EC50 was determined as 160 nM in assay [1], 90 nM in assay [2] and 180 nM in assay [3].

With `O=c1ccn2c(c1O)-c1ncc(Cl)n1C[C@@H]2C(c1ccccc1)c1ccccc1` [Example 5, (S)-6-Benzhydryl-3-chloro-11-hydroxy-5,6-dihydro-10H-imidazo[1,2-a]pyrido[2,1-c]pyrazin-10-one], the figures for the EC50 in assay [1], in assay [2] and in assay [3] were 100 nM, 180 nM and 220 nM, respectively.

As for `O=c1ccn2c(c1O)-c1nccn1CN2C(c1ccccc1)c1ccccc1` [Example 6, 6-benzhydryl-11-hydroxy-5H-imidazo[1,2-d]pyrido[2,1-f][1,2,4]triazin-10(6H)-one], the figures for the EC50 in assay [1], in assay [2] and in assay [3] were 190 nM, 100 nM and 150 nM, respectively.

Regarding `O=c1ccn2c(c1O)-c1ncc(Br)n1C[C@@H]2C(c1ccccc1)c1ccccc1` [Example 7, (S)-6-benzhydryl-3-bromo-11-hydroxy-5H-imidazo[1,2-a]pyrido[2,1-c]pyrazin-10(6H)-one], the results for the EC50 in assay [1], in assay [2] and in assay [3] were 170 nM, 160 nM and 140 nM, respectively.

Turning to `O=c1ccn2c(c1O)-c1ncc(C3CC3)n1C[C@@H]2C(c1ccccc1)c1ccccc1` [Example 8, (S)-6-benzhydryl-3-cyclopropyl-11-hydroxy-5H-imidazo[1,2-a]pyrido[2,1-c]pyrazin-10(6H)-one], the EC50 in assay [1] amounted to 150 nM; in assay [2], 530 nM; in assay [3] it was 490 nM.

On to `CCc1cnc2n1C[C@H](C(c1ccccc1)c1ccccc1)n1ccc(=O)c(O)c1-2` [Example 9, (S)-6-benzhydryl-3-ethyl-11-hydroxy-5H-imidazo[1,2-a]pyrido[2,1-c]pyrazin-10(6H)-one], for which the EC50 came to 580 nM in assay [1], 590 nM in assay [2] and 850 nM in assay [3].

On to `O=c1cnn2c(c1O)-c1nccn1CC2C(c1ccc(Cl)cc1)c1ccc(Cl)cc1` (stereo not shown) [Example 10, 6-(bis(4-chlorophenyl)methyl)-11-hydroxy-5H-imidazo[2′,1′:3,4]pyrazino[1,2-b]pyridazin-10(6H)-one], for which the EC50 in assay [1] turned out to be 320 nM; in assay [2] it was 820 nM; in assay [3] it was 290 nM.

Regarding `O=c1cnn2c(c1O)-c1nccn1CC2C(c1cccc(Cl)c1)c1cccc(Cl)c1` (stereo not shown) [Example 11, 6-(bis(3-chlorophenyl)methyl)-11-hydroxy-5H-imidazo[2′,1′:3,4]pyrazino[1,2-b]pyridazin-10(6H)-one], the figures for the EC50 in assay [1], in assay [2] and in assay [3] were 80 nM, 90 nM and 160 nM, respectively.

As for `O=c1cnn2c(c1O)-c1nccn1CC2C(c1ccc(F)cc1)c1ccc(F)cc1` (stereo not shown) [Example 12, 6-(bis(4-fluorophenyl)methyl)-11-hydroxy-5H-imidazo[2′,1′:3,4]pyrazino[1,2-b]pyridazin-10(6H)-one], the EC50 stood at 800 nM in assay [1], 60 nM in assay [2] and 70 nM in assay [3].

On to `Cc1cnc2n1C[C@H](C(c1ccccc1)c1ccccc1)n1ccc(=O)c(O)c1-2` [Example 13, (S)-6-benzhydryl-11-hydroxy-3-methyl-5H-imidazo[1,2-a]pyrido[2,1-c]pyrazin-10(6H)-one], for which the EC50 worked out at 310 nM in assay [1], 300 nM in assay [2] and 570 nM in assay [3].

In the case of `Cc1nc2n(c1C)C[C@H](C(c1ccccc1)c1ccccc1)n1ccc(=O)c(O)c1-2` [Example 14, (S)-6-benzhydryl-11-hydroxy-2,3-dimethyl-5H-imidazo[1,2-a]pyrido[2,1-c]pyrazin-10(6H)-one], the EC50 was 4200 nM in assay [1], 5500 nM in assay [2] and 6700 nM in assay [3].

Consider `O=c1cnn2c(c1O)-c1nccn1C[C@@H]2C(c1cccc(Cl)c1)c1cccc(Cl)c1` [Example 15, (S)-6-(bis(3-chlorophenyl)methyl)-11-hydroxy-5H-imidazo [2′,1′:3,4] pyrazino [1,2-b]pyridazin-10(6H)-one], for which the EC50 in assay [1] is 25 nM; in assay [2], 19 nM; in assay [3], 40 nM.

On to `O=c1cnn2c(c1O)-c1nccn1C[C@H]2C(c1cccc(Cl)c1)c1cccc(Cl)c1` [Example 16, (R)-6-(bis(3-chlorophenyl)methyl)-11-hydroxy-5H-imidazo[2′,1′:3,4] pyrazino [1,2-b]pyridazin-10(6H)-one], for which the EC50 in assay [1] was determined as 820 nM; in assay [2], 950 nM; in assay [3], 960 nM.

In the case of `O=c1cnn2c(c1O)-c1nccn1C[C@@H]2[C@H](c1ccccc1)c1ccc(F)cc1` [Example 17, (S)-6-((R)-(4-fluorophenyl)(phenyl)methyl)-11-hydroxy-5,6-dihydro-10H-imidazo[2′,1′:3,4]pyrazino[1,2-b]pyridazin-10-one], the figures for the EC50 in assay [1], in assay [2] and in assay [3] were 10 nM, 70 nM and 30 nM, respectively.

For the molecule `O=c1cnn2c(c1O)-c1nccn1C[C@@H]2[C@@H](c1ccccc1)c1ccc(F)cc1` [Example 18, (S)-6-((S)-(4-fluorophenyl)(phenyl)methyl)-11-hydroxy-5,6-dihydro-10H-imidazo[2′,1′:3,4]pyrazino[1,2-b]pyridazin-10-one], the values for the EC50 in assay [1], in assay [2] and in assay [3] were 130 nM, 160 nM and 130 nM, respectively.

As for `O=c1cnn2c(c1O)-c1nccn1C[C@@H]2[C@H](c1ccc(F)cc1)c1cncc(F)c1` [Example 19, (S)-6-((R)-(4-fluorophenyl)(5-fluoropyridin-3-yl)methyl)-11-hydroxy-5,6-dihydro-10H-imidazo[2′,1′:3,4]pyrazino[1,2-b]pyridazin-10-one], the EC50 in assay [1] was found to be 260 nM; in assay [2], 490 nM; in assay [3], 230 nM.

As for `O=c1cnn2c(c1O)-c1nccn1C[C@@H]2[C@H](c1ccc(F)cc1)c1ccc(C(F)(F)F)nc1` [Example 20, (S)-6-((R)-(4-fluorophenyl)(6-(trifluoromethyl)pyridin-3-yl)methyl)-11-hydroxy-5,6-dihydro-10H-imidazo[2′,1′:3,4]pyrazino[1,2-b]pyridazin-10-one], the EC50 in assay [1] worked out at 720 nM; in assay [2] it was 740 nM; in assay [3], 690 nM.

In the case of `O=c1cnn2c(c1O)-c1nccn1C[C@@H]2[C@@H](c1ccc(F)cc1)c1cccc(C(F)(F)F)c1` [Example 21, (S)-6-((S)-(4-fluorophenyl)(3-(trifluoromethyl)phenyl)methyl)-11-hydroxy-5,6-dihydro-10H-imidazo[2′,1′:3,4]pyrazino[1,2-b]pyridazin-10-one], the values for the EC50 in assay [1], in assay [2] and in assay [3] were 52 nM, 110 nM and 71 nM, respectively.

Consider `O=c1cnn2c(c1O)-c1nccn1C[C@@H]2C(c1ccc(F)cc1)c1ccc(F)cc1` [Example 22, (S)-6-(bis(4-fluorophenyl)methyl)-11-hydroxy-5,6-dihydro-10H-imidazo[2′,1′:3,4]pyrazino[1,2-b]pyridazin-10-one], for which the EC50 in assay [1] was 82 nM; in assay [2] it was 10 nM; in assay [3] it was 27 nM.

As to `O=c1cnn2c(c1O)-c1nccn1C[C@@H]2C(c1cccc(F)c1)c1cccc(F)c1` [Example 23, (S)-6-(bis(3-fluorophenyl)methyl)-11-hydroxy-5,6-dihydro-10H-imidazo[2′,1′:3,4]pyrazino[1,2-b]pyridazin-10-one], the figures for the EC50 in assay [1], in assay [2] and in assay [3] were 39 nM, 36 nM and 23 nM, respectively.

As for `O=c1cnn2c(c1O)-c1nccn1C[C@@H]2[C@@H](c1ccc(F)cc1)c1cccc(F)c1` [Example 24, (S)-6-((S)-(3-fluorophenyl)(4-fluorophenyl)methyl)-11-hydroxy-5,6-dihydro-10H-imidazo[2′,1′:3,4]pyrazino[1,2-b]pyridazin-10-one], the figures for the EC50 in assay [1], in assay [2] and in assay [3] were 36 nM, 59 nM and 52 nM, respectively.

Turning to `O=c1ccn2c(c1O)-c1nccn1C(C1CC1)N2C(c1ccccc1)c1ccccc1` (stereo not shown) [Example 73, 6-benzhydryl-5-cyclopropyl-11-hydroxy-5,6-dihydro-10H-imidazo[1,2-d]pyrido[2,1-f][1,2,4]triazin-10-one], the results for the EC50 in assay [1] and in assay [3] were 170 nM and 390 nM, respectively.

Take `O=c1ccn2c(c1O)-c1ncsc1CN2C(c1ccccc1)c1ccccc1` [Example 81, 5-benzhydryl-10-hydroxy-4,5-dihydro-9H-pyrido[1,2-b]thiazolo[4,5-d]pyridazin-9-one]: the results for the EC50 in assay [1] and in assay [3] were 7000 nM and 2200 nM, respectively.
